# Data reported in ChEMBL document CHEMBL1255175, “Synthesis, antimicrobial, and mosquito larvicidal activity of 1-aryl-4-methyl-3,6-bis-(5-methylisoxazol-3-yl)-2-thioxo-2,3,6,10b-tetrahydro-1H-pyrimido[5,4-c]quinolin-5-ones” (2010).
# Key:
# Assay type in all cases: functional
# [1] = test system: Bacillus subtilis; assay: Antimicrobial activity against Bacillus subtilis MTCC 441
# [2] = test system: Lysinibacillus sphaericus; assay: Antimicrobial activity against Bacillus sphaericus MTCC 511
# [3] = test system: Staphylococcus aureus; assay: Antimicrobial activity against Staphylococcus aureus MTCC 96
# [4] = test system: Pseudomonas aeruginosa; assay: Antimicrobial activity against Pseudomonas aeruginosa MTCC 741
# [5] = test system: Klebsiella aerogenes; assay: Antimicrobial activity against Klebsiella aerogenes MTCC 39
# [6] = test system: Chromobacterium violaceum; assay: Antimicrobial activity against Chromobacterium violaceum MTCC 2656
# [7] = test system: Aspergillus niger; assay: Antifungal activity against Aspergillus niger MTCC 282 at 30 ug/ml; details: read-out: DIZ
# [8] = test system: Aspergillus niger; assay: Antifungal activity against Aspergillus niger MTCC 282 at 100 ug/ml; details: read-out: DIZ
# [9] = Antifungal activity against Chrysosporium tropicum MTCC 2821 at 30 ug/ml
# [10] = Antifungal activity against Chrysosporium tropicum MTCC 2821 at 100 ug/ml
# [11] = test system: Rhizopus arrhizus; assay: Antifungal activity against Rhizopus oryzae MTCC 262 at 30 ug/ml; details: read-out: DIZ
# [12] = test system: Rhizopus arrhizus; assay: Antifungal activity against Rhizopus oryzae MTCC 262 at 100 ug/ml; details: read-out: DIZ
# [13] = test system: Fusarium verticillioides; assay: Antifungal activity against Fusarium moniliforme MTCC 1848 at 30 ug/ml; details: read-out: DIZ
# [14] = test system: Fusarium verticillioides; assay: Antifungal activity against Fusarium moniliforme MTCC 1848 at 100 ug/ml; details: read-out: DIZ
# [15] = test system: Curvularia lunata; assay: Antifungal activity against Curvularia lunata MTCC 2030 at 30 ug/ml; details: read-out: DIZ
# [16] = test system: Curvularia lunata; assay: Antifungal activity against Curvularia lunata MTCC 2030 at 100 ug/ml; details: read-out: DIZ
# [17] = test system: Culex quinquefasciatus; assay: Insecticidal activity against Culex quinquefasciatus 4th instar larvae; details: for LC50: Culex quinquefasciatus
Structure (SMILES),MIC [1] [µg/mL],MIC [2] [µg/mL],MIC [3] [µg/mL],MIC [4] [µg/mL],MIC [5] [µg/mL],MIC [6] [µg/mL],zone of inhibition at 30 µg/mL [7] [mm],zone of inhibition at 100 µg/mL [8] [mm],inhibition zone (IZ) [9] [mm],inhibition zone (IZ) [10] [mm],zone of inhibition at 30 µg/mL [11] [mm],zone of inhibition at 100 µg/mL [12] [mm],zone of inhibition at 30 µg/mL [13] [mm],zone of inhibition at 100 µg/mL [14] [mm],zone of inhibition at 30 µg/mL [15] [mm],zone of inhibition at 100 µg/mL [16] [mm],LC90 [17] [µg/mL],LC50 [17] [µg/mL]
CC1=C2C(=O)N(c3cc(C)on3)c3ccccc3C2N(c2ccccc2)C(=S)N1c1cc(C)on1 (stereo not given),19,15,15,20,13,18,25,45,30,45,40,50,30,45,35,40,3.1,1.02
Clc1ccccc1C(c1ccccc1)(c1ccccc1)n1ccnc1 [CLOTRIMAZOLE],,,,,,,,26,,30,,33,,25,,35,,
O=C(O)c1cn(C2CC2)c2cc(N3CCNCC3)c(F)cc2c1=O [CIPROFLOXACIN],20,20,,30,,25,,,,,,,,,,,,
COc1ccc(N2C(=S)N(c3cc(C)on3)C(C)=C3C(=O)N(c4cc(C)on4)c4ccccc4C32)cc1 (stereo not given),20,15,10,15,14,18,35,60,40,,45,65,35,60,40,60,3.65,2.09
CC1=C2C(=O)N(c3cc(C)on3)c3ccccc3C2N(c2ccccc2Cl)C(=S)N1c1cc(C)on1 (stereo not given),8,10,9,5,8,6,30,55,25,40,35,50,30,45,40,55,1,0.98
CC1=C2C(=O)N(c3cc(C)on3)c3ccccc3C2N(c2ccc(C)cc2)C(=S)N1c1cc(C)on1 (stereo not given),16,11,10,10,8,6,40,60,40,,45,65,45,60,45,65,2.41,0.85
CC1=C2C(=O)N(c3cc(C)on3)c3ccccc3C2N(Cc2ccccc2)C(=S)N1c1cc(C)on1 (stereo not given),22,18,25,20,15,18,31,61,30,,35,59,32,55,30,55,1.59,2.27
COc1cccc(N2C(=S)N(c3cc(C)on3)C(C)=C3C(=O)N(c4cc(C)on4)c4ccccc4C32)c1 (stereo not given),18,18,12,8,13,11,20,40,28,40,40,65,35,60,35,55,2.41,1.25
CC1=C2C(=O)N(c3cc(C)on3)c3ccccc3C2N(c2ccc(Br)cc2)C(=S)N1c1cc(C)on1 (stereo not given),6,8,9,9,7,5,40,50,25,45,39,45,25,40,35,45,1.8,0.88
CC1=C2C(=O)N(c3cc(C)on3)c3ccccc3C2N(c2ccc(Cl)cc2)C(=S)N1c1cc(C)on1 (stereo not given),16,15,15,20,15,13,25,40,30,45,40,50,30,45,35,50,4,1.01
